The text below walks through data of US9232799B2, “N-[(het)arylethyl)] pyrazole(thio)carboxamides and their heterosubstituted analogues” (BAYER INTELLECTUAL PROPERTY GMBH, priority 2010, dated 2016).

The nature of series [1]: logP by HPLC on reversed-phase column (C 18), EEC Directive 79/831 Annex V.A8. It counts as physicochemical. The protocol:
In table 1, the logP values were determined in accordance with EEC Directive 79/831 Annex V.A8 by HPLC (High Performance Liquid Chromatography) on a reversed-phase column (C 18), using the method described below: Temperature: 40° C.; […]

In series [2] the test system is Pyrenophora teres. Briefly: In vivo preventive test on Pyrenophora teres (barley). The note with it: 500 ppm of active ingredient, evaluated 7-9 days after inoculation. The source says:
One day after this treatment, the plants are inoculated with an aqueous spore suspension of Pyrenophora teres.

Series [3] concerns Leptosphaeria nodorum. The series is described as follows: In vivo preventive test on Leptosphaeria nodorum (wheat). The note with it: 500 ppm of active ingredient, evaluated 7-9 days after inoculation. The source says:
One day after this treatment, the plants are inoculated with an aqueous spore suspension of Leptosphaeria nodorum.

Series [4] deals with aflatoxines production. Briefly: microbe, parasite or virus in culture. The note with it: 50 μM. The format is cell-based, Aspergillus parasiticus.
The subject of series [5] is Fusarium graminearum. The series is described as follows: microbe, parasite or virus in culture. It counts as cell-based. The note with it: 50 μM.
Series [6] has as its system Sphaerotheca fuliginea. Briefly: In vivo preventive test on Sphaerotheca fuliginea (cucumber). The note with it: 500 ppm of active ingredient, evaluated 7 days after inoculation. The source says: One day after this treatment, the plants are inoculated with an aqueous spore suspension of Sphaerotheca fuliginea.
Series [7] deals with Alternaria solani. Briefly: In vivo preventive test on Alternaria solani (tomato). The note with it: 500 ppm of active ingredient, evaluated 7 days after inoculation. The source says:
One day after this treatment, the plants are inoculated with an aqueous spore suspension of Alternaria solani.

Each structure is given as a SMILES string.

`Cn1nc(C(F)F)c(C(=O)NC2CC2c2cccc(F)c2)c1F` (centres unmarked) [Example 222]: in series [1], the lipophilicity (logP) is given as 2.59. For the same compound, the Efficacy worked out at 100% in series [2] and 90% in series [3]. Also, in series [4], the “% Inhibition of Aflatoxin at 50 μM” value is given as 99%. For the same compound, the “% Inhibition of fungal growth at 50 μM” value in series [5] was 81%.

`Cn1nc(C(F)F)c(C(=O)N(C2CC2)C2CCCCC2c2ccccc2Cl)c1F` (centres unmarked) [Example 216] came in with a logP in series [1] of 4.49. Further, the Efficacy is reported as 100% in series [6], 71% in series [7] and 95% in series [2]. In series [4], the “% Inhibition of Aflatoxin at 50 μM” value is on record as 100%. In series [5], the “% Inhibition of fungal growth at 50 μM” value was 84%.

Compound `CC(CN(C(=S)c1c(C(F)F)nn(C)c1Cl)C1CC1)c1ccccc1` (centres unmarked) [Example 16] came in with a logP in series [1] of 4.11. In addition, the Efficacy in series [7] turned out to be 95%; in series [2], 100%; in series [3], 95%.

On to `Cn1nc(C(F)F)c(C(=O)N(C2CC2)C2CCCCC2(C)c2ccccc2)c1F` (mixture of isomers) [Example 218], for which the Efficacy in series [6] turned out to be 94%; in series [7] it was 70%; in series [2], 100%; in series [3], 95%. Moreover, the “% Inhibition of Aflatoxin at 50 μM” value in series [4] came to 100%. The “% Inhibition of fungal growth at 50 μM” value in series [5] stood at 99%.

As to `Cn1nc(C(F)F)c(C(=O)NCC(C)(C)c2ccc(Cl)cc2Cl)c1F` [Example 87], in series [1], the logP turned out to be 3.81. In addition, the Efficacy in series [7] was found to be 95%; in series [2], 94%; in series [3], 70%. Besides, in series [4], the “% Inhibition of Aflatoxin at 50 μM” value came out at 100%. Moreover, the “% Inhibition of fungal growth at 50 μM” value in series [5] came out at 94%.

`CC(Cc1c(F)cccc1F)N(C(=S)c1c(C(F)F)nn(C)c1F)C1CC1` (centres unmarked) [Example 28] gave a logP in series [1] of 3.94. The Efficacy is on record as 100% in series [6], 90% in series [7], 100% in series [2] and 95% in series [3].

The compound `CCC(CNC(=O)c1c(C(F)F)nn(C)c1Cl)c1ncc(C(F)(F)F)cc1Cl` (centres unmarked) [Example 193] showed a logP in series [1] of 3.73. Further, the figures for the Efficacy in series [6], in series [7] and in series [2] were 83%, 100% and 100%, respectively. The “% Inhibition of Aflatoxin at 50 μM” value in series [4] is 100%. In addition, the “% Inhibition of fungal growth at 50 μM” value in series [5] stood at 91%.

In series [1], `Cn1nc(C(F)F)c(C(=O)N(C[Si](C)(C)c2ccsc2)C2CC2)c1F` [Example 248] gave a logP of 3.55. Further, the Efficacy in series [7] is listed as 94%; in series [2], 100%; in series [3], 94%. Further, the “% Inhibition of Aflatoxin at 50 μM” value in series [4] is given as 100%. The “% Inhibition of fungal growth at 50 μM” value in series [5] is given as 100%.

In the case of `CC(Cc1ccccc1F)N(C(=O)c1c(C(F)F)nn(C)c1F)C1CC1` (centres unmarked) [Example 19], the log partition coefficient (logP) in series [1] worked out at 3.37. The Efficacy in series [7] was 100%; in series [2], 100%; in series [3], 70%. Also, in series [4], the “% Inhibition of Aflatoxin at 50 μM” value was 100%. For the same compound, in series [5], the “% Inhibition of fungal growth at 50 μM” value was found to be 100%.

The compound `CN(CCc1cc(Cl)ccc1Cl)C(=S)c1c(C(F)F)nn(C)c1F` [Example 96] came in with a logP in series [1] of 3.87. Also, the values for the Efficacy in series [7], in series [2] and in series [3] were 95%, 100% and 90%, respectively. The “% Inhibition of Aflatoxin at 50 μM” value in series [4] is listed as 100%. The “% Inhibition of fungal growth at 50 μM” value in series [5] came out at 82%.

`Cn1nc(C(F)F)c(C(=O)NC2CC2c2ccccc2C(F)(F)F)c1F` (centres unmarked) [Example 225] displayed a lipophilicity (logP) in series [1] of 3.00. The Efficacy in series [6] was found to be 80%; in series [7] it was 95%; in series [2], 100%. In series [4], the “% Inhibition of Aflatoxin at 50 μM” value is listed as 97%. Further, the “% Inhibition of fungal growth at 50 μM” value in series [5] amounted to 83%.
